The text below walks through data of patent US5866346A (priority 1997, dated 1999).

In assay [1] the target is kappa opioid receptor (KOR) (Cavia porcellus, UniProt P41144). The conditions noted are these: read-out: KOR (Ki) Guinea pig (36); cited from earlier work.
Assay [2] concerns the target kappa opioid receptor (KOR) (Rattus norvegicus, UniProt P34975). Conditions: cited from earlier work.
The target in assay [3] is T1, XOR1 (rat opioid receptor-like novel receptor) (Rattus norvegicus, UniProt P35370).
T1 construct: expressed in transfected cells; host or cells: CHO-K1 and HEK-293 cells, transient calcium phosphate transfection
T1 sequence (P35370 whole entry): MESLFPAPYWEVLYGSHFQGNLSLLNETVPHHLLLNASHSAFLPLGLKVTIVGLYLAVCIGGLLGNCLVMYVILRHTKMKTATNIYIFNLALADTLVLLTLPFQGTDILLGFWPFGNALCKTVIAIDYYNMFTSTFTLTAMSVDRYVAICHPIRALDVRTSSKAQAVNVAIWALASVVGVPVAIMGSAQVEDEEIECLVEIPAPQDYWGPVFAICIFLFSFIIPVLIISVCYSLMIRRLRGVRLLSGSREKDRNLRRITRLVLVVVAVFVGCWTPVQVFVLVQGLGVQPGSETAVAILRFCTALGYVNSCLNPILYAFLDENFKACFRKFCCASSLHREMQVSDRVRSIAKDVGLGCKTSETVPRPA
Briefly: Inhibition of forskolin-stimulated cyclic AMP increase in cells transiently transfected with XOR1. The conditions noted are these: 5 μM ligand, 10 μM forskolin. In kind it is cell-based. How it is done:
FIGS. 4A and 4B. Inhibition of forskolin-stimulated cyclic AMP increase by dyn A-(1-13). CHO-K1 or HEK-293 cells transiently transfected with the XOR1 clone were treated with 10 μM forskolin with or without 5 μM dyn A-(1-13). The control cells were transfected with the plasmid vector and underwent the same treatment. Intracellular cyclic AMP content was determined using a radioimmunoassay kit (DuPont/NEN). Data are shown as mean ± S.E. (n=2). * indicates a significant-difference from the forskolin-only treated cells (Student's t-test, p<0.01).
Cell transfection and cyclic AMP assay--The CHO-K1 and HEK-293 cells were transiently transfected with either XOR1 (rat opioid receptor-like novel receptor) cDNA in pRc/CMV (Invitrogen) or vector only (as control) by calcium phosphate method as described by Chen et al., Mol. Cell Biol. 7:2745-2752 (1987). Three days after transfection, cells were harvested by trypsin treatment, washed and resuspended in serum-free medium. Cells were treated with ligands in the presence of 10 μM forskolin and 1 mM 3-iosbutyl-1-methylxanthine at 37° C. for 20 min. The reaction was terminated by adding 1/3 volume of 0.25M HCl. The mixture was boiled for 5 min and centrifuged at 14,000 g for 10 min. […] The cAMP in cells was determined by the nonacetylated method using the radioimmunoassay kit (DuPont/NEN) according to the manufacturer's instructions.

The Ki is the dissociation constant of the complex between target and ligand, obtained from inhibition or displacement.

Structures are written as SMILES. Like-named read-outs stand apart in the source and are kept apart here.

Sequence of kappa opioid receptor (KOR) (Rattus norvegicus, UniProt P34975) (P34975 whole entry): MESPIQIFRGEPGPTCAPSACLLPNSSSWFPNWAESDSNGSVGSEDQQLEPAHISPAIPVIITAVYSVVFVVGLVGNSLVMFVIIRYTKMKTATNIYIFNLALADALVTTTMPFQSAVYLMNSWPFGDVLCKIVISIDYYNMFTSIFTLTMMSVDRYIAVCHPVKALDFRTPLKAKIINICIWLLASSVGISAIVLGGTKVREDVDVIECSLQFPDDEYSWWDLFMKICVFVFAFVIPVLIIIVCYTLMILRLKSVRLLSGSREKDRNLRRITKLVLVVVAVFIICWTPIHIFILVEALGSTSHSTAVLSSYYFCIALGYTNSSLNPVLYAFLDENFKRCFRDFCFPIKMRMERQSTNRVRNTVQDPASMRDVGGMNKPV
Sequence of kappa opioid receptor (KOR) (Cavia porcellus, UniProt P41144) (P41144 whole entry): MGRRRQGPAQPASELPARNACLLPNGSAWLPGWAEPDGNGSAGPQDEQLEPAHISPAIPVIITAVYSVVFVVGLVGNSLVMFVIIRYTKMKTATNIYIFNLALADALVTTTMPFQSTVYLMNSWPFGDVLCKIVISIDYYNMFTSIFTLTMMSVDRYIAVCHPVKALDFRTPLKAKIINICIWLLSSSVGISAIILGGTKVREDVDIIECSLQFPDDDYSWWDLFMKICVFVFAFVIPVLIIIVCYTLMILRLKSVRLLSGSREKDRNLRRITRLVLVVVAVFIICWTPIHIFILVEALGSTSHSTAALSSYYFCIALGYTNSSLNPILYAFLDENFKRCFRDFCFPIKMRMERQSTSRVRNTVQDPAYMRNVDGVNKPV

As to `CC[C@H](C)[C@H](NC(=O)[C@H](CCCNC(=N)N)NC(=O)[C@H](CCCNC(=N)N)NC(=O)[C@H](CC(C)C)NC(=O)[C@H](Cc1ccccc1)NC(=O)CNC(=O)CNC(=O)[C@@H](N)Cc1ccc(O)cc1)C(=O)N[C@@H](CCCNC(=N)N)C(=O)N1CCC[C@H]1C(=O)N[C@@H](CCCCN)C(=O)N[C@@H](CC(C)C)C(=O)N[C@@H](CCCCN)C(=O)N[C@@H](Cc1c[nH]c2ccccc12)C(=O)N[C@@H](CC(=O)O)C(=O)N[C@@H](CC(N)=O)C(=O)N[C@@H](CCC(N)=O)C(=O)O` [dyn A, dynorphin A], the Ki is 0.58 nM in assay [1], 0.15 nM in assay [2] (read-out: KOR (Ki) Rat (27)), 0.05 nM in assay [2] (read-out: KOR (Ki) Rat (33)) and 0.11 nM in assay [2] (read-out: KOR (Ki) Rat (34)).

As for `CC[C@H](C)[C@H](NC(=O)[C@H](CCCNC(=N)N)NC(=O)[C@H](CCCNC(=N)N)NC(=O)[C@H](CC(C)C)NC(=O)[C@H](Cc1ccccc1)NC(=O)CNC(=O)CNC(=O)[C@@H](N)Cc1ccc(O)cc1)C(=O)N[C@@H](CCCNC(=N)N)C(=O)N1CCC[C@H]1C(=O)N[C@@H](CCCCN)C(=O)N[C@@H](CC(C)C)C(=O)N[C@@H](CCCCN)C(=O)O` [dyn A-(1-13), dynorphin A (1-13)], the inhibitory constant (Ki) in assay [1] is 0.71 nM; in assay [2] (read-out: KOR (Ki) Rat (34)) it was 0.12 nM. In addition, the “inhibition of forskolin-stimulated cAMP increase” value is 51% in assay [3] (CHO-K1 cells) and 35% in assay [3] (HEK-293 cells).
